Patent US20240109937A1, “BINDING PEPTIDES AND USES THEREOF” (The Johns Hopkins University, priority 2021, published 2024)

Tests used:
Type in all cases: cell-based, mouse
HL-1 cells [1] = assay: Cell viability assay (LDH release) in HL-1 cells under Ca2+ overload; conditions: Calcimycin 1 μM in HBS KV medium, dose-dependent response
Experimental: Calcium (Ca^2+) Overload Protocol: Rapid and sustained intracellular Ca^2+ overload was obtained by adding the Ca^2+-ionophore, calcimycin (1 μM), to HL-1 cells incubated for 10 min in HBS KV medium (1.26 mM CaCl2, 0.81 mM MgSO4, 0.44 mM KH2PO4, 142 mM KCl, 0.27 mM K2HPO4, 5.55 mM D-glucose, 1 mM Na3VO4, 20 mM Hepes pH 7.4). To monitor intracellular Ca^2+ variations, HL-1 cells were loaded with 5 μM Fluo-4 FF AM (Molecular Probes) in HBS Na (Sigma) for 30 min before the media was replaced with HBS KV. […] Cell Viability Assay: HL-1 plasma membrane integrity was assessed by measuring lactate dehydrogenase (LDH) release in the culture supernatant. An enzymatic assay evaluated LDH activity. Samples of the cell-free culture supernatant were collected at indicated times in Figures/Figure Legends, while cells were lysed in 1% (w/v) Triton X-100 at the end of each experiment to estimate the remaining cellular content of LDH. The LDH activity at each time point was expressed as a percentage of total LDH activity.

HL-1 cells [2] = assay: Mitochondrial membrane potential (JC-1) assay in HL-1 cells; conditions: Calcimycin 1 μM in HBS KV medium
Experimental: Calcium (Ca^2+) Overload Protocol: Rapid and sustained intracellular Ca^2+ overload was obtained by adding the Ca^2+-ionophore, calcimycin (1 μM), to HL-1 cells incubated for 10 min in HBS KV medium (1.26 mM CaCl2, 0.81 mM MgSO4, 0.44 mM KH2PO4, 142 mM KCl, 0.27 mM K2HPO4, 5.55 mM D-glucose, 1 mM Na3VO4, 20 mM Hepes pH 7.4). To monitor intracellular Ca^2+ variations, HL-1 cells were loaded with 5 μM Fluo-4 FF AM (Molecular Probes) in HBS Na (Sigma) for 30 min before the media was replaced with HBS KV. […] Mitochondrial Membrane Potential (MMP) Assay: MMP was determined using the potentiometric probe, JC-1. JC-1 (Molecular Probes) is a cationic carbocyanine dye that selectively accumulates in polarized mitochondria, where it forms red fluorescent aggregates (excitation 485/emission 590 nm). Upon mitochondrial depolarization, JC-1 is released into the cytosol, whereas a monomer emits green fluorescence (excitation 485 nm/emission 520 nm). Therefore, MMP variations were monitored as the ratio of fluorescent emissions at 590/520 nm using a fluorimeter plate reader (Fluoroskan Ascent Labsystem). HL-1 cells were incubated with JC-1 (1.5 μM) for 30 min at 37° C. in HBS Na before treatment protocols.

HL-1 cells [3] = assay: Intracellular Ca2+ (Fluo4 FF fluorescence) in HL-1 cells; conditions: Calcimycin 1 μM in HBS KV medium
Experimental: Calcium (Ca^2+) Overload Protocol: Rapid and sustained intracellular Ca^2+ overload was obtained by adding the Ca^2+-ionophore, calcimycin (1 μM), to HL-1 cells incubated for 10 min in HBS KV medium (1.26 mM CaCl2, 0.81 mM MgSO4, 0.44 mM KH2PO4, 142 mM KCl, 0.27 mM K2HPO4, 5.55 mM D-glucose, 1 mM Na3VO4, 20 mM Hepes pH 7.4). To monitor intracellular Ca^2+ variations, HL-1 cells were loaded with 5 μM Fluo-4 FF AM (Molecular Probes) in HBS Na (Sigma) for 30 min before the media was replaced with HBS KV.

cleaved (75 kDa) CAPN1 = assay: Immunoblot of active CAPN1 in ISO/Ca2+-treated ES-CMs (chronic CAPN1 inhibition); conditions: Dsg2^mut/mut ES-CMs, 7 days 50 μM ISO/1 μM Ca2+, calpeptin pretreatment
Experimental: Mouse embryonic stem cells (ESs) were maintained and differentiated, and the absence of mycoplasma contamination was confirmed prior to experimental studies. Briefly, mouse ESs from both WT and Dsg2^mut/mut mice were derived from E3.5 embryos and maintained on gelatin-coated dishes in maintenance medium (Glasgow minimum essential medium supplemented with 10% fetal bovine serum and 3 μM Chir99021 and 1 μM PD98059 or 1000 U/ml ESGRO; Millipore), Glutamax, sodium pyruvate, and MEM non-essential amino acids (Thermo Fisher Scientific). For cardiomyocyte (CM) differentiation, ESs were plated in IMDM/Ham's F12 (Cellgro, at 3:1) supplemented with N2, B27, penicillin/streptomycin, 2 mM GlutaMAX, 0.05% BSA, 5 ng/ml L-ascorbic acid (Sigma-Aldrich), and α-monothioglycerol (MTG; Sigma-Aldrich) at a final density of 100,000 cells/ml to allow spheroid formation. After 48 hours, embryoid bodies were collected and transferred to ultra-low attachment plastic surface and induced for 40 hours with Activin A and Bmp4 (R&D Systems). Cells were then dissociated and plated as monolayers for 48 hours in the presence of 10 μM XAV to allow cardiomyocyte differentiation. The resulting ES-CMs were cultured 45 days before experimental procedures were performed.

CCCC[C@@H](C=O)NC(=O)[C@H](CC(C)C)NC(=O)OCc1ccccc1 [calpeptin]
reduction in cell death (LDH release) (HL-1 cells [1]): ~40%
Ca2+ overload-induced decrease in mitochondrial membrane potential (MMP) (HL-1 cells [2]): significantly attenuated
kinetics of cytosolic Ca2+ accumulation (HL-1 cells [3]): neither of them had an impact
levels of cleaved (75 kDa) CAPN1 (cleaved (75 kDa) CAPN1): significantly lowered
